Results as given in patent US10392391B2 (Vertex Pharmaceuticals Incorporated, priority 2012, dated 2019).
Like-named read-outs stand apart in the source and are kept apart here.

Target: ATR kinase (full-length ATR) (Homo sapiens (Human), UniProt Q13535)
Experiment: ATR inhibition assay (radioactive-phosphate incorporation)
Assay type: biochemical
In short: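 Radiometric 33P incorporation by 5 nM full-length ATR into 800 μM target peptide with 10 μM [γ-33P]ATP, in 50 mM Tris/HCl pH 7.5, 10 mM MgCl2, 1 mM DTT, 7% DMSO, 25° C. Compound pre-incubated 10 minutes; reaction stopped after 24 hours, captured on phosphocellulose. Ki(app) from non-linear regression of initial rates.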

[1] = Ki(app), 5 nM full-length ATR, 10 μM ATP, 25° C.

Chain of ATR kinase (full-length ATR) (Q13535 whole entry): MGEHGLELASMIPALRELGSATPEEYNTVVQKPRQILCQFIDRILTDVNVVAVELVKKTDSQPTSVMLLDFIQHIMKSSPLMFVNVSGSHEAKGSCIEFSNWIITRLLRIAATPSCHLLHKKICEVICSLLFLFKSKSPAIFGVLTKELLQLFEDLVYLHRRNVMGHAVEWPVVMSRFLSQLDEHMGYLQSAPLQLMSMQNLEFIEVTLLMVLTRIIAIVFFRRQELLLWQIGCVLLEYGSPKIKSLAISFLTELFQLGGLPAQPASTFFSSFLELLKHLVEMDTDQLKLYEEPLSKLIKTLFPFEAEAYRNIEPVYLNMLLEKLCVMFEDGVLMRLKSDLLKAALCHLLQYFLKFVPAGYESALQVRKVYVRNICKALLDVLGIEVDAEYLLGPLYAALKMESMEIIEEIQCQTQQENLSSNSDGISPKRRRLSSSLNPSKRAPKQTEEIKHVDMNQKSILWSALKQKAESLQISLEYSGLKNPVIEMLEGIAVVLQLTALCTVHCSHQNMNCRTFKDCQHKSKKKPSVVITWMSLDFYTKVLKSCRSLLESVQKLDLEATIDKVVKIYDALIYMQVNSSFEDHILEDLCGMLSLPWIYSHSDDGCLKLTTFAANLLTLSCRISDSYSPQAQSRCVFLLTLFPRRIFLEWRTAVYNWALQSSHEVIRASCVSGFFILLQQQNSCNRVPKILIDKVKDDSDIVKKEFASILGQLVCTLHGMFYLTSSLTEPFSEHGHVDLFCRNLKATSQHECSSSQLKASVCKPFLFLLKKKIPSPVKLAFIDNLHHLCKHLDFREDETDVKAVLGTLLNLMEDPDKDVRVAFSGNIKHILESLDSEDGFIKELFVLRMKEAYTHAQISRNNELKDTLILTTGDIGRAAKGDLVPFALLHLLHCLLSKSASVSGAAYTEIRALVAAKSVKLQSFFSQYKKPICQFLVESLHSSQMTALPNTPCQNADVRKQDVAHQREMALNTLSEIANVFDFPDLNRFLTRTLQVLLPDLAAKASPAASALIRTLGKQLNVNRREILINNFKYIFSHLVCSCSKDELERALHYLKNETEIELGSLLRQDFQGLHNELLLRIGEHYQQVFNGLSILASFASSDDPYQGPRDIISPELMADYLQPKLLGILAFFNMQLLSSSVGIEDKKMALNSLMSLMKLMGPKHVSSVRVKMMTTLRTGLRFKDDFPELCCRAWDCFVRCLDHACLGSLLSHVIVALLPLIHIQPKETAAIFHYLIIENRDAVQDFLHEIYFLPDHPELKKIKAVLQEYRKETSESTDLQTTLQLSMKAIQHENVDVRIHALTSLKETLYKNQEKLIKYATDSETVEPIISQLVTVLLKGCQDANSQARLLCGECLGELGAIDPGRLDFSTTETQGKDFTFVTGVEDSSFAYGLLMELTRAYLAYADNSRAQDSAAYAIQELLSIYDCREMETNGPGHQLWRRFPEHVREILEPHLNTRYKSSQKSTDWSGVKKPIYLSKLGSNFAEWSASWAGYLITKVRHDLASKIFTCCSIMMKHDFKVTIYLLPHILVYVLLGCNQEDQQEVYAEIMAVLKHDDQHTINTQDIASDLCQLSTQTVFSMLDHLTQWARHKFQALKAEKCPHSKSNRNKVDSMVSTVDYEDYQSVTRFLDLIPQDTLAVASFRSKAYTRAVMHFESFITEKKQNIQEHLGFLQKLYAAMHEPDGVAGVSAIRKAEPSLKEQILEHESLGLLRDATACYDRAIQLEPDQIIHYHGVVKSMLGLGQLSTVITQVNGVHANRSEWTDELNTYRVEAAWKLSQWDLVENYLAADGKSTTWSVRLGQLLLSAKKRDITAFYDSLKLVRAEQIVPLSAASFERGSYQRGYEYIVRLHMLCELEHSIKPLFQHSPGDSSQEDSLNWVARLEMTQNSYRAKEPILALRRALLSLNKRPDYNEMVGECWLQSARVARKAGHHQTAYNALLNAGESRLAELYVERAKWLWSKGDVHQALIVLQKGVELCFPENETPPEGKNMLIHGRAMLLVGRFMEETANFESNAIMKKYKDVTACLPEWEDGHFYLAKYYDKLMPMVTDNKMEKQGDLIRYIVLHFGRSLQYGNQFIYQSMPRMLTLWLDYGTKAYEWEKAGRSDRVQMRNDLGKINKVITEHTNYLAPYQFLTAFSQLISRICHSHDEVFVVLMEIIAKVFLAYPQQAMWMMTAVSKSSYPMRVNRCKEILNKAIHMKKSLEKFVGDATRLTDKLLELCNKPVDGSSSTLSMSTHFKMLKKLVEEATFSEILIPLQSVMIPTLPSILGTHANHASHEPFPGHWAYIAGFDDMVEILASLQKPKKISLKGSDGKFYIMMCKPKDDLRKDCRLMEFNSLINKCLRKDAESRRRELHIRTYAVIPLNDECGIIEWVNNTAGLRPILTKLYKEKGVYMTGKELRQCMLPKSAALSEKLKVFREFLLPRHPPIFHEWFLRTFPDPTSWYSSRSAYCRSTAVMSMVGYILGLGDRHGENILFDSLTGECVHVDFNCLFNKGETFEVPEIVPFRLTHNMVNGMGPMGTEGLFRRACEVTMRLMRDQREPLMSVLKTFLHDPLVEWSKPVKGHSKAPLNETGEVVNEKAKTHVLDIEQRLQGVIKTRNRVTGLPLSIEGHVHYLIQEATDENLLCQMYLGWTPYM

Ki [1] [nM]	Ki [nM]	Compound
10 to 1000		CC(=O)N1CCCC12CCN(c1ccncc1NC(=O)c1c(N)nn3cc(F)cnc13)CC2 [I-N-262, N-(4-(1-acetyl-1,8-diazaspiro[4.5]decan-8-yl)pyridin-3-yl)-2-amino-6-fluoropyrazolo[1,5-a]pyrimidine-3-carboxamide]
10 to 1000		CN(C)C1CCN(C2CCN(c3ccncc3NC(=O)c3c(N)nn4cc(Cl)cnc34)CC2)C1 (centres unmarked) [I-N-106, 2-amino-6-chloro-N-(4-(4-(3-(dimethylamino)pyrrolidin-1-yl)piperidin-1-yl)pyridin-3-yl)pyrazolo[1,5-a]pyrimidine-3-carboxamide]
10 to 1000		CN1CC(NC(=O)C2CCN(c3c(F)cncc3NC(=O)c3c(N)nn4cc(F)cnc34)CC2)C1 [I-G-23, 2-amino-6-fluoro-N-(5-fluoro-4-(4-((1-methylazetidin-3-yl)carbamoyl)piperidin-1-yl)pyridin-3-yl)pyrazolo[1,5-a]pyrimidine-3-carboxamide]
10 to 1000		Cc1cncn1-c1ccncc1NC(=O)c1c(N)nn2cc(F)cnc12 [I-N-283, 2-amino-6-fluoro-N-(4-(5-methyl-1H-imidazol-1-yl)pyridin-3-yl)pyrazolo[1,5-a]pyrimidine-3-carboxamide]
10 to 1000		Cc1ccnnc1-c1ccncc1NC(=O)c1c(N)nn2cc(F)cnc12 [I-C-33, 2-amino-6-fluoro-N-(4-(4-methylpyridazin-3-yl)pyridin-3-yl)pyrazolo[1,5-a]pyrimidine-3-carboxamide]
< 10		N#CCc1cnc2c(C(=O)Nc3cnccc3OCC3CC3)c(N)nn2c1 [I-O-32, 2-amino-6-(cyanomethyl)-N-(4-(cyclopropylmethoxy)pyridin-3-yl)pyrazolo[1,5-a]pyrimidine-3-carboxamide]
10 to 1000		CN1CC(N2CCN(C(=O)C3CCN(c4c(F)cncc4NC(=O)c4c(N)nn5cc(F)cnc45)CC3)CC2)C1 [I-G-96, 2-amino-6-fluoro-N-(5-fluoro-4-(4-(4-(1-methylazetidin-3-yl)piperazine-1-carbonyl)piperidin-1-yl)pyridin-3-yl)pyrazolo[1,5-a]pyrimidine-3-carboxamide]
< 10		CC(C)Oc1ccncc1NC(=O)c1c(N)nn2cc(CC#N)cnc12 [I-O-35, 2-amino-6-(cyanomethyl)-N-(4-isopropoxypyridin-3-yl)pyrazolo[1,5-a]pyrimidine-3-carboxamide]
10 to 1000		CN(C)CC1CCN(c2ccncc2NC(=O)c2c(N)nn3cc(F)cnc23)CC1 [I-N-267, 2-amino-N-(4-(4-((dimethylamino)methyl)piperidin-1-yl)pyridin-3-yl)-6-fluoropyrazolo[1,5-a]pyrimidine-3-carboxamide]
10 to 1000		Nc1nn2cc(F)cnc2c1C(=O)Nc1cncc(F)c1N1CCN(CC(=O)N2CCC2)CC1 [I-N-228, 2-amino-N-(4-(4-(2-(azetidin-1-yl)-2-oxoethyl)piperazin-1-yl)-5-fluoropyridin-3-yl)-6-fluoropyrazolo[1,5-a]pyrimidine-3-carboxamide]
	1000 to 5000	CN(C)C1CCN(c2ccncc2NC(=O)c2c(N)nn3cc(Cl)cnc23)CC1 [I-N-37, 2-amino-6-chloro-N-(4-(4-(dimethylamino)piperidin-1-yl)pyridin-3-yl)pyrazolo[1,5-a]pyrimidine-3-carboxamide]
	1000 to 5000	Nc1nn2cc(F)cnc2c1C(=O)Nc1cncc(F)c1C1CCN(C2COC2)CC1 [I-C-13, 2-amino-6-fluoro-N-(5-fluoro-4-(1-(oxetan-3-yl)piperidin-4-yl)pyridin-3-yl)pyrazolo[1,5-a]pyrimidine-3-carboxamide]
10 to 1000		Nc1nn2cc(F)cnc2c1C(=O)Nc1cncc(F)c1N1CCN(S(=O)(=O)C2CCOCC2)CC1 [I-N-158, 2-amino-6-fluoro-N-(5-fluoro-4-(4-((tetrahydro-2H-pyran-4-yl)sulfonyl)piperazin-1-yl)pyridin-3-yl)pyrazolo[1,5-a]pyrimidine-3-carboxamide]
10 to 1000		CN1CCN(c2ccncc2NC(=O)c2c(N)nn3cc(F)cnc23)CC1=O [I-N-209, 2-amino-6-fluoro-N-(4-(4-methyl-3-oxopiperazin-1-yl)pyridin-3-yl)pyrazolo[1,5-a]pyrimidine-3-carboxamide]
10 to 1000		Nc1nn2cc(F)cnc2c1C(=O)Nc1cncc(F)c1N1CCN2CCOC[C@@H]2C1 [I-N-137, (S)-2-amino-6-fluoro-N-(5-fluoro-4-(hexahydropyrazino[2,1-c][1,4]oxazin-8(1H)-yl)pyridin-3-yl)pyrazolo[1,5-a]pyrimidine-3-carboxamide]
10 to 1000		CS(=O)(=O)CC1CCN(c2ccncc2NC(=O)c2c(N)nn3cc(F)cnc23)CC1 [I-N-215, 2-amino-6-fluoro-N-(4-(4-((methylsulfonyl)methyl)piperidin-1-yl)pyridin-3-yl)pyrazolo[1,5-a]pyrimidine-3-carboxamide]

Ki [1] [nM]	Ki [nM]	Compound
10 to 1000		Nc1nn2cc(F)cnc2c1C(=O)Nc1cncc(F)c1N1CCN2C(=O)CCCC2C1 (centres unmarked) [I-N-277, 2-amino-6-fluoro-N-(5-fluoro-4-(6-oxohexahydro-1H-pyrido[1,2-a]pyrazin-2(6H)-yl)pyridin-3-yl)pyrazolo[1,5-a]pyrimidine-3-carboxamide]
10 to 1000		C[C@@H]1CN(C2COC2)CCN1c1ccncc1NC(=O)c1c(N)nn2cc(F)cnc12 [I-N-23, (R)-2-amino-6-fluoro-N-(4-(2-methyl-4-(oxetan-3-yl)piperazin-1-yl)pyridin-3-yl)pyrazolo[1,5-a]pyrimidine-3-carboxamide]
10 to 1000		CC1(S(C)(=O)=O)CCN(c2ccncc2NC(=O)c2c(N)nn3cc(F)cnc23)CC1 [I-N-243, 2-amino-6-fluoro-N-(4-(4-methyl-4-(methylsulfonyl)piperidin-1-yl)pyridin-3-yl)pyrazolo[1,5-a]pyrimidine-3-carboxamide]
10 to 1000		Nc1nn2cc(F)cnc2c1C(=O)Nc1cncc(F)c1N1CCC(C(=O)N2CC[C@H](N3CCCC3)C2)CC1 [I-G-58, (S)—N-(4-(4-([1,3′-bipyrrolidine]-1′-carbonyl)piperidin-1-yl)-5-fluoropyridin-3-yl)-2-amino-6-fluoropyrazolo[1,5-a]pyrimidine-3-carboxamide]
10 to 1000		COC1(C)CN(C(=O)C2CCN(c3c(F)cncc3NC(=O)c3c(N)nn4cc(F)cnc34)CC2)C1 [I-G-75, 2-amino-6-fluoro-N-(5-fluoro-4-(4-(3-methoxy-3-methylazetidine-1-carbonyl)piperidin-1-yl)pyridin-3-yl)pyrazolo[1,5-a]pyrimidine-3-carboxamide]
10 to 1000		Nc1nn2cc(F)cnc2c1C(=O)Nc1cnccc1N1CCC(S(=O)(=O)N2CCC2)CC1 [I-N-271, 2-amino-N-(4-(4-(azetidin-1-ylsulfonyl)piperidin-1-yl)pyridin-3-yl)-6-fluoropyrazolo[1,5-a]pyrimidine-3-carboxamide]
10 to 1000		Nc1nn2cc(F)cnc2c1C(=O)Nc1cnccc1N1CCC(C(=O)N2CC3(COC3)C2)CC1 [I-G-88, N-(4-(4-(2-oxa-6-azaspiro[3.3]heptane-6-carbonyl)piperidin-1-yl)pyridin-3-yl)-2-amino-6-fluoropyrazolo[1,5-a]pyrimidine-3-carboxamide]
10 to 1000		N#CC1(C(=O)N2CCC(c3ccncc3NC(=O)c3c(N)nn4cc(F)cnc34)CC2)CC1 [I-C-71, 2-amino-N-(4-(1-(1-cyanocyclopropanecarbonyl)piperidin-4-yl)pyridin-3-yl)-6-fluoropyrazolo[1,5-a]pyrimidine-3-carboxamide]
10 to 1000		CN(C)C1CN(C(=O)C2CCN(c3c(F)cncc3NC(=O)c3c(N)nn4cc(F)cnc34)CC2)C1 [I-G-22, 2-amino-N-(4-(4-(3-(dimethylamino)azetidine-1-carbonyl)piperidin-1-yl)-5-fluoropyridin-3-yl)-6-fluoropyrazolo[1,5-a]pyrimidine-3-carboxamide]
10 to 1000		Cc1nccnc1-c1ccncc1NC(=O)c1c(N)nn2cc(F)cnc12 [I-C-62, 2-amino-6-fluoro-N-(4-(3-methylpyrazin-2-yl)pyridin-3-yl)pyrazolo[1,5-a]pyrimidine-3-carboxamide]
10 to 1000		CN1CCN(C(=O)N2CCN(c3c(F)cncc3NC(=O)c3c(N)nn4cc(F)cnc34)CC2)CC1 [I-N-140, 2-amino-6-fluoro-N-(5-fluoro-4-(4-(4-methylpiperazine-1-carbonyl)piperazin-1-yl)pyridin-3-yl)pyrazolo[1,5-a]pyrimidine-3-carboxamide]
10 to 1000		CC(C)(O)CN1CCN(c2c(F)cncc2NC(=O)c2c(N)nn3cc(F)cnc23)CC1 [I-N-139, 2-amino-6-fluoro-N-(5-fluoro-4-(4-(2-hydroxy-2-methylpropyl)piperazin-1-yl)pyridin-3-yl)pyrazolo[1,5-a]pyrimidine-3-carboxamide]
10 to 1000		Nc1nn2cc(F)cnc2c1C(=O)Nc1cnccc1C1CCN(S(=O)(=O)C2CC2)CC1 [I-C-47, 2-amino-N-(4-(1-(cyclopropylsulfonyl)piperidin-4-yl)pyridin-3-yl)-6-fluoropyrazolo[1,5-a]pyrimidine-3-carboxamide]
10 to 1000		Nc1nn2cc(F)cnc2c1C(=O)Nc1cnccc1-c1cccnc1F [I-C-35, 2-amino-6-fluoro-N-(2-fluoro-[3,4′-bipyridin]-3′-yl)pyrazolo[1,5-a]pyrimidine-3-carboxamide]
10 to 1000		Nc1nn2cc(F)cnc2c1C(=O)Nc1cnccc1N1CCN2CCC[C@H]2C1 [I-N-21, (S)-2-amino-6-fluoro-N-(4-(hexahydropyrrolo[1,2-a]pyrazin-2(1H)-yl)pyridin-3-yl)pyrazolo[1,5-a]pyrimidine-3-carboxamide]

Compound	Ki [1] [nM]	Ki [nM]
Nc1nn2cc(F)cnc2c1C(=O)Nc1cncc(F)c1N1CCC(C(=O)N2CC3CCC(C2)N3)CC1 [I-G-44, N-(4-(4-(3,8-diazabicyclo[3.2.1]octane-3-carbonyl)piperidin-1-yl)-5-fluoropyridin-3-yl)-2-amino-6-fluoropyrazolo[1,5-a]pyrimidine-3-carboxamide]	10 to 1000	
